# Assay results from patent US20220324865A1 (Bayer Aktiengesellschaft, priority 2018, published 2022).
# Counter-ions that a name gives are not always drawn.
# Target: T1, human EP3 receptor (Homo sapiens, UniProt P43115)
# T1 construct: expressed in transfected cells; host or cells: CHO K1 (Chinese Hamster Ovary), stably co-transfected with Galpha16 and mitochondrial clytin
# T1 sequence (P43115 1-390): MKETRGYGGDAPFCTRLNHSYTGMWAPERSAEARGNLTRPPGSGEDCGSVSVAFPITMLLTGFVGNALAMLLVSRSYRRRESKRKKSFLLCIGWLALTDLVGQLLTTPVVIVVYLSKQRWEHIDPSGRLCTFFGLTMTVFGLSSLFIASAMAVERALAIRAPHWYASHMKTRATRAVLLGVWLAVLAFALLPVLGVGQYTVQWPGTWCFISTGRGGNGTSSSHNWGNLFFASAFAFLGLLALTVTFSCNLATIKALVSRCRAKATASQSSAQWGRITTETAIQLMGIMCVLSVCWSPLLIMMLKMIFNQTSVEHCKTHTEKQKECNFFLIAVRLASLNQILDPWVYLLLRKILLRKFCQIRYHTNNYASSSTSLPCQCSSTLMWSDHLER
# Assay: Cellular in vitro assay for determining EP3 receptor activity (human EP3 cell line, sulprostone-stimulated calcium luminescence)
# Assay type: cell-based
# Settings: CHO cells expressing human EP3 and mitochondrial Clytin; antagonist mode, sulprostone at EC50; read-out: EP3 CHO mtCLY ANTAG IC50
# Procedure, shortened: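 CHO K1 cells stably expressing human EP3 with Gα16 and mitochondrial Clytin, loaded overnight with coelenterazine. Compounds added 10 min before sulprostone at its EC50; antagonism read immediately as reduced calcium-driven luminescence, quadruplicate points.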
row,SMILES,IC50 [nM]
1,"COc1ccc(C2(NC(=O)c3cc4c(=O)[nH]c(-c5ccc6ccccc6c5)cn4n3)CN(C(=O)OC(C)(C)C)C2)cn1 [Example 1-6, tert.-Butyl 3-(6-methoxypyridin-3-yl)-3-({[6-(naphthalen-2-yl)-4-oxo-4,5-dihydropyrazolo[1,5-a]-pyrazin-2-yl]carbonyl}amino)azetidine-1-carboxylate]",1.28
2,Cc1nc(-c2cn3nc(C(=O)N[C@@H](c4ccc(F)cc4)C(C)(C)O)c(C4CC4)c3c(=O)[nH]2)ccc1Cl [6-590],1.2
3,"CCn1cc(CNC(=O)c2nn3cc(-c4ccc5ccccc5c4)[nH]c(=O)c3c2C#N)c(C)n1 [Example 3-44, 3-Cyano-N-[(1-ethyl-3-methyl-1H-pyrazol-4-yl)methyl]-6-(naphthalen-2-yl)-4-oxo-4,5-dihydropyrazolo[1,5-a]pyrazine-2-carboxamide]",2.6
4,"CC(NC(=O)c1nn2cc(-c3ccc4ccccc4c3)[nH]c(=O)c2c1C(F)(F)F)c1cnc(OCC(F)(F)F)cn1 (centres unmarked) [Example 1-117, 6-(2-Naphthyl)-4-oxo-N-[1-[5-(2,2,2-trifluoroethoxy)pyrazin-2-yl]ethyl]-3-(trifluoromethyl)-5H-pyrazolo[1,5-a]pyrazine-2-carboxamide]",1.38
5,COc1ccc(C2(NC(=O)c3nn4cc(-c5ccc(C)c(C)c5)[nH]c(=O)c4c3C3CC3)CN(C)C2)cc1 [6-427],5.15
6,"O=C(NCc1ccc(F)c(F)c1)c1cc2c(=O)[nH]c(-c3ccc4ccccc4c3)cn2n1 [Example 2-33, N-(3,4-Difluorbenzyl)-6-(2-naphthyl)-4-oxo-4,5-dihydropyrazolo[1,5-a]pyrazine-2-carboxamide]",1.5
7,"Cc1c(C(=O)NC2(c3ccccc3)CC2)nn2c(C)c(-c3ccc4ccccc4c3)[nH]c(=O)c12 [Example 3-25, 3,7-Dimethyl-6-(naphthalen-2-yl)-4-oxo-N-(1-phenylcyclopropyl)-4,5-dihydropyrazolo[1,5-a]pyrazine-2-carboxamide]",2.4
8,"Cc1c(C(=O)NC(C)c2cccc(Br)c2)nn2c(C)c(-c3ccc4ccccc4c3)[nH]c(=O)c12 (centres unmarked) [Example 3-24, N-[1-(3-Bromophenyl)ethyl]-3,7-dimethyl-6-(2-naphthyl)-4-oxo-5H-pyrazolo[1,5-a]pyrazine-2-carboxamide]",4.85
9,Cc1cc(-c2cn3nc(C(=O)N[C@H](C)C4CC4)c(C(F)(F)C(F)(F)F)c3c(=O)[nH]2)ccc1Cl [6-476],5.3
10,"CC(C)(O)[C@@H](NC(=O)c1cc2c(=O)[nH]c(-c3ccc4c(c3)CCCC4)cn2n1)c1ccc(F)cc1 [Example 1-133, N-[(1S)-1-(4-Fluorophenyl)-2-hydroxy-2-methylpropyl]-4-oxo-6-(5,6,7,8-tetrahydronaphthalen-2-yl)-4,5-dihydropyrazolo[1,5-a]pyrazine-2-carboxamide]",2.8
11,"Cc1c(C(=O)NC(CO)c2cc(Cl)cc(Cl)c2)nn2c(C)c(-c3ccc4ccccc4c3)[nH]c(=O)c12 (centres unmarked) [Example 3-40, N-[1-(3,5-Dichlorophenyl)-2-hydroxyethyl]-3,7-dimethyl-6-(2-naphthyl)-4-oxo-5H-pyrazolo[1,5-a]pyrazine-2-carboxamide]",7.6
12,"CC(NC(=O)c1cc2c(=O)[nH]c(-c3ccc4ccccc4c3)cn2n1)c1ccc(O)cc1 (single isomer, unassigned) [6-543]",3.3
13,O=C(NC1(c2ccc(F)cc2)CC1)c1cc2c(=O)[nH]c(-c3ccc4c(c3)OCCO4)cn2n1 [6-23],3.1
14,Cc1cc(-c2cn3nc(C(=O)NCC(O)(C(F)(F)F)C(F)(F)F)c(C4CC4)c3c(=O)[nH]2)ccc1Cl [6-305],2.95
15,Cc1ccc(-c2cn3nc(C(=O)N[C@@H](c4ccc(F)cc4)C(C)(C)O)c(CC(F)(F)F)c3c(=O)[nH]2)cc1F [6-633],3.5
16,C[C@H](NC(=O)c1cc2c(=O)[nH]c(-c3ccc4ccccc4c3)cn2n1)c1ccc(F)cc1 [6-79],4.57
17,"Cc1ccc(-c2cn3nc(C(=O)NC4(c5ccc(F)cc5)CCN(C)C4)cc3c(=O)[nH]2)cc1C (single isomer, unassigned) [6-363]",46
18,"Cc1ccc(-c2cn3nc(C(=O)N[C@H](C)c4ccc(C(F)(F)F)cc4)cc3c(=O)[nH]2)cc1C [Example 1-15, 6-(3,4-Dimethylphenyl)-4-oxo-N-{(1R)-1-[4-(trifluoromethyl)phenyl]ethyl}-4,5-dihydropyrazolo-[1,5-a]pyrazine-2-carboxamide]",1.7
19,"CCN1CCC(NC(=O)c2nn3cc(-c4ccc(Cl)c(C)c4)[nH]c(=O)c3c2C2CC2)(C(F)(F)F)C1 (single isomer, unassigned) [6-293]",5.7
20,"CN1CC(NC(=O)c2nn3cc(-c4ccc5ccccc5c4)[nH]c(=O)c3c2C(F)(F)F)(c2ccc(F)cc2)C1 [Example 1-31, N-[3-(4-Fluorophenyl)-1-methylazetidin-3-yl]-6-(naphthalen-2-yl)-4-oxo-3-(trifluoromethyl)-5H-pyrazolo[1,5-a]pyrazine-2-carboxamide trifluoroacetic acid salt]",1.84
21,"Cc1cc(C)n(C(CNC(=O)c2cc3c(=O)[nH]c(-c4ccc5ccccc5c4)cn3n2)C(C)C)n1 (centres unmarked) [Example 2-19, N-[2-(3,5-Dimethyl-1H-pyrazol-1-yl)-3-methylbutyl]-6-(2-naphthyl)-4-oxo-4,5-dihydropyrazolo[1,5-a]pyrazine-2-carboxamide]",7.9

row,SMILES,IC50 [nM]
1,"Cc1nn(C(C)CNC(=O)c2cc3c(=O)[nH]c(-c4ccc5ccccc5c4)cn3n2)cc1Cl (centres unmarked) [Example 2-18, N-[2-(4-Chlor-3-methyl-1H-pyrazol-1-yl)propyl]-6-(2-naphthyl)-4-oxo-4,5-dihydropyrazolo[1,5-a]pyrazine-2-carboxamide]",2.2
2,O=C(NC(CCn1cncn1)c1ccccc1)c1cc2c(=O)[nH]c(-c3ccc4c(c3)OCCO4)cn2n1 (centres unmarked) [6-47],2.17
3,Cc1ccc(-c2cn3nc(C(=O)NC4(c5ccc(F)cc5)CN(C)C4)c(C4CC4)c3c(=O)[nH]2)cc1Cl [6-262],2.8
4,"Cc1cccc2ncc(-c3cn4nc(C(=O)NC5Cc6ccccc6C5)c(C(C)C)c4c(=O)[nH]3)cc12 [Example 4-38, N-(2,3-Dihydro-1H-inden-2-yl)-6-(5-methylquinolin-3-yl)-4-oxo-3-(propan-2-yl)-4,5-dihydropyrazolo[1,5-a]pyrazine-2-carboxamide]",1.3
5,Cc1cc(-c2cn3nc(C(=O)NC(C)c4ccccc4OC(F)F)cc3c(=O)[nH]2)ccc1C(F)(F)F (centres unmarked) [6-33],8.15
6,CC[C@@H](C)NC(=O)c1nn2cc(-c3ccc(Cl)c(C)c3)[nH]c(=O)c2c1C(F)(F)F [6-227],6.67
7,"Cc1ccc(-c2cn3nc(C(=O)N[C@H](CCO)c4ccc(F)cc4)cc3c(=O)[nH]2)cc1C [Example 1-39, 6-(3,4-Dimethylphenyl)-N-[(1R)-1-(4-fluorophenyl)-3-hydroxpropyl]-4-oxo-4,5-dihydropyrazolo-[1,5-a]pyrazine-2-carboxamide]",0.265
8,"Cc1cc(-c2cn3nc(C(=O)N[C@H]4CCN(C5CC5)C4)c(C4CC4)c3c(=O)[nH]2)ccc1Cl (single isomer, unassigned) [6-323]",3.3
9,"Cc1nn(C(CNC(=O)c2cc3c(=O)[nH]c(-c4ccc5ccccc5c4)cn3n2)C(C)C)c(C)c1Cl (centres unmarked) [Example 2-20, N-[2-(4-Chloro-3,5-dimethyl-1H-pyrazol-1-yl)-3-methylbutyl]-6-(2-naphthyl)-4-oxo-4,5-dihydropyrazolo[1,5-a]pyrazine-2-carboxamide]",9.75
10,"CCN1CCC(NC(=O)c2nn3cc(-c4ccc(C)c(F)c4)[nH]c(=O)c3c2C2CC2)(C(F)(F)F)C1 (single isomer, unassigned) [6-406]",23.5
11,Cc1ccc(-c2cn3nc(C(=O)NC(c4ccc(F)cc4)C4(O)CC4)c(C4CC4)c3c(=O)[nH]2)cc1F (racemic) [6-381],1.52
12,Cc1ccc(-c2cn3nc(C(=O)N[C@@H](c4ccc(F)cc4)C(C)(C)O)c(C(F)(F)C(F)(F)F)c3c(=O)[nH]2)cc1Cl [6-488],0.57
13,"O=C(NC(CN1CCOCC1)c1ccc(F)cc1)c1cc2c(=O)[nH]c(-c3ccc4ccccc4c3)cn2n1 (centres unmarked) [Example 1-40, N-[1-(4-Fluorophenyl)-2-morpholinoethyl]-6-(2-naphthyl)-4-oxo-5H-pyrazolo[1,5-a]pyrazine-2-carboxamide]",8.27
14,Cc1ccc(-c2cn3nc(C(=O)NC(C(C)(C)O)C(F)(F)F)c(C4CC4)c3c(=O)[nH]2)cc1F (racemic) [6-394],6.65
15,O=C(N[C@H]1c2ccccc2C[C@H]1O)c1cc2c(=O)[nH]c(-c3ccc4ccccc4c3)cn2n1 [6-72],7.93
16,"Cc1ccc(-c2cn3nc(C(=O)NCC(O)C(F)(F)F)c(C4CC4)c3c(=O)[nH]2)cc1C(F)(F)F (single isomer, unassigned) [6-245]",1.35
17,Cc1ccc(-c2cn3nc(C(=O)N[C@@H](c4ccc(F)cc4)C(F)(F)CO)c(C(F)(F)F)c3c(=O)[nH]2)cc1F [6-141],2.23
18,Cc1ccc(-c2cn3nc(C(=O)N[C@@H](C)C(C)(C)C)c(C4CC4)c3c(=O)[nH]2)cc1Cl [6-253],4.75
19,"Cc1cccc2ncc(-c3cn4nc(C(=O)NC(C)c5cccc(Br)c5)c(C(C)C)c4c(=O)[nH]3)cc12 (centres unmarked) [Example 4-62, N-[1-(3-Bromophenyl)ethyl]-3-isopropyl-6-(5-methyl-3-quinolyl)-4-oxo-5H-pyrazolo[1,5-a]pyrazine-2-carboxamide]",2.05
20,Cc1nc(-c2cn3nc(C(=O)N[C@@H](c4ccc(F)cc4)C(F)(F)CO)c(C4CC4)c3c(=O)[nH]2)ccc1Cl [6-591],1.3
